Test [1] has as its system A. nidulans. The experiment in a line: Growth test on plates at different ligand concentrations. It counts as cell-based, Aspergillus nidulans. As to the method:
Induction of estrogen receptor expression via the addition of […], 100 nM, and 1 μM of DES inducer to media plates harboring the Xgal substrate for LacZ in the transformed strain: A. nidulans argB2, riboA1, pyrG 89, pyroA4. FIG. 6. […] Activation of the reporter construct at 1 nM DES was shown in the transformed fungi.

The test system of test [2] is alcA promoter of A. nidulans. The following applies: pRM alcA, induction with ethanol. Here is the method: To test the different inducer concentrations the strains were harvested by filtration and aliquots were transferred to fresh media containing the different inducer concentrations and additionally grown for 8 hours. At the end mycelium was harvested by filtration and frozen in liquid nitrogen. For time curve experiments the strains were harvested and additionally grown for 24 hours and after 2, 4, 6, 8 and 24 hours samples were taken and frozen in liquid nitrogen. […] An equal amount of fungal cell mass has been transferred to fresh medium and aliquots have been subjected to induction by the agonists. After sampling at desired time points the wet cell pellet has been processed as described.
NaPO4 buffer and glasbeads (0.75-1.0 mm) were added to the frozen mycelia and cells were destroyed by the use of the Hybaid RiboLyser. Cell debris was separated by centrifugation and the supernatant was used for enzyme assays Protein concentration was determined using the BCA assay of Pierce and the specific β-galactosidase activity was determined by the use of the protocol of Invitrogen.
β-gal activity in each pERE constructs were assayed after induction with 1 nM DES. The alcA expression was also assayed for comparison.

Read-outs that look alike come from different tables or passages of the source.

As to `CC/C(=C(/CC)c1ccc(O)cc1)c1ccc(O)cc1` [DES, diethylstilbestrol], the “growth of strains transformed with reporter constructs” value in test [1] (strains transformed with reporter constructs, 100 nM DES) is “strong growth inhibition”. For the same compound, the “growth of strains transformed with the hER” value in test [1] (strains transformed with the hER, 1 nM DES) is given as “Growth inhibition”. In addition, in test [1] (wild type strain, DES concentrations up to 20 μM), the “effect on growth of a wild type strain” value was “do not affect the growth”.
For the compound `CCO` [ethanol], the Inducibility in test [2] (24 h level over time 0 level) came to 16.23. Moreover, the β-gal activity in test [2] (time 2 hours) is given as 506.66 units per mg protein; in test [2] (time 4 hours), 714.43 units per mg protein; in test [2] (time 6 hours), 1327.44 units per mg protein; in test [2] (time 8 hours) it was 1431.02 units per mg protein; in test [2] (time 24 hours) it was 6082.59 units per mg protein.

The values are drawn from patent US20070077642A1, “Steroid receptor modulation of gene expression” (priority 2002, published 2007).
